Source: patent publication US8784856B2, “Meadowfoam-based bioherbicide products” (The State of Oregon Acting by and Through the State Boad of …, priority 2007, dated 2014)
Entries after “also recorded” stand apart in the source; their conditions may differ.

Assays:
Aphamyces euteiches = conditions: cited from earlier work
[1] = test system: downy brome (Bromus tectorum) seeds; assay: Assay for herbicidal activity: downy brome seed germination in soil; format: in vivo; conditions: for inhibition of downy brome germination at the highest concentration tested: 0.89 mg g^−1, FIG. 11; for effectiveness in inhibiting downy brome germination, in words: FIG. 11, comparison of compounds 1-4; for activity as seed germination inhibitors (downy brome): compared with MBITC, 82 hours and 168 hours, FIG. 8
Experimental: Assay for herbicidal activity. About 45 g of clean soil was weighed into 10-cm diameter Petri dishes. For germination testing of individual compounds (1-4), 15.0 mL of test solution was added to each dish. Glucolimanthin 1 (GLN) was dissolved in water and compounds 2-4 in ethanol. The ethanolic solutions were applied to the dishes, allowed to evaporate overnight in a hood, and then 15 mL of water was added to the dishes. Meal products were mixed with soil, followed by the addition of 15 mL of water. Fifteen seeds of Bromus tectorum were placed in concentric circles within each dish. Petri dishes with lids were placed in an incubator at 20° C. during day time (8 hrs) and at 15° C. at night time (16 hrs) for 7 days. Germination was recorded as root emergence.

[2] = test system: fall armyworm (Lepidoptera: Noctuidae); conditions: compared with benzyl ITC and synthetic analogs; cited from earlier work
[3] = test system: velvetleaf (Abutilon theophrasti); conditions: in vivo; cited from earlier work
Wheat [4] = conditions: in vivo; cited from earlier work
[5] = test system: potato cyst Nematode (Globodera rostochiensis Ct. Woll); conditions: in vivo; cited from earlier work
Wheat [6] = conditions: in vivo; cited from earlier work; remark: listed apart in the source
fungi = conditions: cited from earlier work
[7] = test system: velvetleaf, sicklepod, milo, and pitted morning glory; conditions: formulated as granules; all weed types; cited from earlier work
[8] = test system: postharvest fruit pathogens; conditions: cited from earlier work
[9] = Degradation of GLN in aqueous FeSO4 solution (HPLC); format: physicochemical; conditions: 1 mM GLN with 10 mM FeSO4 at room temperature; FIG. 3B
Text: HPLC. The HPLC equipment consisted of a Waters Delta 600 solvent delivery system, a Waters 717 plus Autosampler, a Waters 2996 photodiode array detector, a Waters 600 controller and a data acquisition/processing computer with Empower™ software (Waters, Milford, Mass.). In HPLC system 1, separations were achieved on a reverse-phase Lichrosphere 5 μm C18 column (4×250 mm, Phenomenex, Torrance, Calif.). The HPLC solvents were 0.1% aqueous trifluoroacetic acid (solvent A) and MeCN (solvent B). A linear solvent gradient was employed starting from 5% solvent B in solvent A to 100% B over 30 min at a flow rate of 1.0 mL/min. After returning to the starting conditions in 1 min, the column was equilibrated for 10 min before the next injection. The injection volume was 20 μL. On-line UV spectra were recorded in the range 220-500 nm and the λ274 nm trace was used for calculation of peak areas. Analyte concentrations were determined from calibration curves constructed for each analyte.

[10] = test system: skin damage by UV radiation; conditions: human subjects, topically applied; cited from earlier work
Helicobacter pylori = conditions: cited from earlier work
phase 2 enzymes = conditions: after treatment; cited from earlier work
[11] = test system: human retinal pigment epithelial cells, keratinocytes, and mouse leukemia cells; conditions: cited from earlier work
[12] = test system: benzo[a]pyrene-induced stomach tumors; conditions: mice dosed with test compound; cited from earlier work
[13] = test system: phase II enzymes (e.g., NAD(P)H:quinone reductase); conditions: cited from earlier work
[14] = test system: root lesion nematode (Pratylenchus neglectus); conditions: in vivo; cited from earlier work

For CN=C=S [methyl ITC], the “performance against pathogen causing pea root rot” value (Aphamyces euteiches) is listed as “performed well”.

With COc1cccc(CN=C=S)c1 [MBITC, 3-Methoxybenzyl isothiocyanate] the “inhibition of downy brome germination at the highest concentration tested” value (“inhibition of downy brome germination” for short) [1] was “failed to completely inhibit”, the “effectiveness in inhibiting downy brome germination, in words” value [1] was “not as effective” and the “activity as seed germination inhibitors (downy brome)” value [1] was “moderately active”. For the same compound, the effectiveness against armyworm [2] was “more effective”, the “seed germination inhibitory / allelopathic activity against velvetleaf” value [3] was “greater activity” and the “seed germination inhibitory / allelopathic activity against wheat” value (Wheat [4]) was “greater activity”.

For S=C=NCc1ccccc1 [benzyl ITC], the “activity on potato cyst nematode” value [5] is given as “performed well”, the “order of effectiveness against wheat” value (Wheat [6]) is given as 2-phenylethyl ITC>allyl ITC>benzyl ITC and the activity against fungi (fungi) is given as “good activity”. For the same compound, the “inhibition of weed germination” value [7] was “inhibition of germination” and the “activity against spore germination” value [8] was “lower activity”.

In the case of COc1cccc(C/C(=N/OS(=O)(=O)O)S[C@@H]2O[C@H](CO)[C@@H](O)[C@H](O)[C@H]2O)c1 [GLN, glucolimnanthin], the “degradation of GLN” value [9] is reported as “did not result in significant degradation”, the “inhibition of downy brome germination” value [1] is reported as “only slightly inhibited” and the “effectiveness in inhibiting downy brome germination, in words” value [1] is reported as “least effective”. The “effect of GLN on downy brome seed germination” value ([1]; levels corresponding to those found in MSM (0.4 mg GLN per g soil), 7 days, FIG. 7) was “no germination inhibitory activity; also recorded: no effect; also recorded: No difference”.

In the case of C[S+]([O-])CCCCN=C=S (stereo not shown) [sulforaphane, 4-methylsulfinylbuthyl ITC], the “erythema and inflammation induced by UV radiation” value [10] is listed as “reduced”, the “antibacterial properties against Helicobacter pylori” value (Helicobacter pylori) is listed as “bacteriostatic and bactericidal properties” and the “phase 2 enzymes in mouse and human skin” value (phase 2 enzymes) is listed as “Up-regulation”. The glutathione after treatment [11] was “increase”, the “protection of cells against oxidative damage” value [11] was “powerful and prolonged protection” and the “effect on benzo[a]pyrene-induced stomach tumors” value [12] was “blocked”. For the same compound, the “induction of phase II enzymes” value [13] was “high activity”.

For COc1cccc(CC#N)c1 [MPAN, 3-Methoxyphenylacetonitrile], the “inhibition of downy brome germination” value [1] was “completely inhibiting”, the “effectiveness in inhibiting downy brome germination, in words” value [1] was “most effective” and the “activity as seed germination inhibitors (downy brome)” value [1] was “more active”. For the same compound, the “seed germination inhibitory / allelopathic activity against velvetleaf” value [3] was “seed germination inhibitory effects” and the “seed germination inhibitory / allelopathic activity against wheat” value (Wheat [4]) was “seed germination inhibitory effects”.

In the case of CS/C=C/CCN=C=S [trans-4-methylthio-3-butenyl ITC], the activity against fungi (fungi) is listed as “good activity” and the “activity against spore germination” value [8] is listed as “equal”.

In the case of C=CCN=C=S [allyl ITC], the “activity on potato cyst nematode” value [5] is listed as “performed well”, the “order of effectiveness against wheat” value (Wheat [6]) is listed as 2-phenylethyl ITC>allyl ITC>benzyl ITC and the “performance against pathogen causing pea root rot” value (Aphamyces euteiches) is listed as “performed well”. For the same compound, the “activity against spore germination” value [8] was “equal”.

In the case of C=CCCN=C=S [3-butenyl ITC], the “activity against spore germination” value [8] is listed as “lower activity”.

For Oc1ccc(CN=C=S)cc1 [4-hyxdroxybenzl], the “activity against spore germination” value [8] is given as “equal”.

In the case of S=C=NCCc1ccccc1 [2-phenylethyl ITC], the “activity on potato cyst nematode” value [5] is listed as “performed well”, the “order of effectiveness against wheat” value (Wheat [6]) is listed as 2-phenylethyl ITC>allyl ITC>benzyl ITC and the activity against fungi (fungi) is listed as “good activity”. The “effect on root lesion nematode” value [14] was “suppression”.
